Test results taken from ChEMBL document CHEMBL2074497, “Involvement of rat organic anion transporter 3 (rOAT3) in cephaloridine-induced nephrotoxicity: in comparison with rOAT1” (Life Sci, 2002).

Key:
Type in all cases: functional, cell-based
[1] = target: T1, Solute carrier family 22 member 6 (Rattus norvegicus, UniProt O35956); test: TP_TRANSPORTER: inhibition of PAH uptake in OAT1-expressing S2 cells
T1 sequence (O35956 whole entry): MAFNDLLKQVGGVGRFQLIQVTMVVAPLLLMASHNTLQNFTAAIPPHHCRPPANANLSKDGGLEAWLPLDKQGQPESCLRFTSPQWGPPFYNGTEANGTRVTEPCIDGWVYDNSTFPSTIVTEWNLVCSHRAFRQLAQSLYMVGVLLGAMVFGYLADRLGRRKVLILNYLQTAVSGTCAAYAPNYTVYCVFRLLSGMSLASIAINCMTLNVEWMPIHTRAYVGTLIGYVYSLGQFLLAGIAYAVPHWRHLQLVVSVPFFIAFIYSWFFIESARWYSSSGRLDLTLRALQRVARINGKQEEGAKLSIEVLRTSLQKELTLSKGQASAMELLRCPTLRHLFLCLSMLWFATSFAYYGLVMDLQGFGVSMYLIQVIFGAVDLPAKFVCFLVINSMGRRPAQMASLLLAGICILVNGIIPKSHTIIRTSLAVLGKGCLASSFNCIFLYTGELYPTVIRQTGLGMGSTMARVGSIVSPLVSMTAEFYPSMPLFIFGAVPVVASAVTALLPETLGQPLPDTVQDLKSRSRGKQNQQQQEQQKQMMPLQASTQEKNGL

[2] = target: T2, Organic anion transporter 3 (Rattus norvegicus, UniProt Q9R1U7); test: TP_TRANSPORTER: inhibition of Estrone sulfate uptake in OAT3-expressing S2 cells
T2 sequence (Q9R1U7 whole entry): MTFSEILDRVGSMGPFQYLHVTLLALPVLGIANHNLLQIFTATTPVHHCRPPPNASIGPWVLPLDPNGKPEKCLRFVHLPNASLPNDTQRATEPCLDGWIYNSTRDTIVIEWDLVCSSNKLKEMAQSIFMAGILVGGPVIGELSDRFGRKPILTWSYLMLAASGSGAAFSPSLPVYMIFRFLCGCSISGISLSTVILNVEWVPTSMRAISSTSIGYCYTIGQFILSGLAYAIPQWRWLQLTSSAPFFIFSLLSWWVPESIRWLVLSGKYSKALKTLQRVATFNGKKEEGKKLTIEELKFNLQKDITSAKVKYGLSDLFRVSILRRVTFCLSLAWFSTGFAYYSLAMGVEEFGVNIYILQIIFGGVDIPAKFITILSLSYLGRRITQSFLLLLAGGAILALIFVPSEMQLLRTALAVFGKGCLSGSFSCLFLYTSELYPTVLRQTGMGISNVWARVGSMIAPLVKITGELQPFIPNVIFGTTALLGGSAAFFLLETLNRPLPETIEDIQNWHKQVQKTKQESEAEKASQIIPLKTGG

[3] = target: T2, Organic anion transporter 3; test: TP_TRANSPORTER: uptake in OAT3-expressing S2 cells; details: mouse

SMILES | IC50 [2] [µM] | Ki [2] [µM] | further results
CC1=C(C(=O)O)N2C(=O)[C@@H](NC(=O)[C@H](N)c3ccccc3)[C@H]2SC1 [CEPHALEXIN ANHYDROUS] | 630 | – | IC50 [1]: > 2 mM
CC1=C(C(=O)O)N2C(=O)[C@@H](NC(=O)[C@H](N)c3ccc(O)cc3)[C@H]2SC1 [CEFADROXIL] | 1780 | – | –
CC(=O)OCC1=C(C(=O)O)N2C(=O)[C@@H](NC(=O)Cc3cccs3)[C@H]2SC1 [CEPHALOTHIN] | – | 48 | –
O=C(Cc1cccs1)N[C@@H]1C(=O)N2C(C(=O)[O-])=C(C[n+]3ccccc3)CS[C@H]12 [CEPHALORIDINE] | – | 1140 | Activity [3]: substrate [+]

Further lines, with some results ahead:

IC50 [2] [µM] | Ki [2] [µM] | SMILES | further results
– | 670 | CCN1CCN(C(=O)N[C@@H](C(=O)N[C@@H]2C(=O)N3C(C(=O)O)=C(CSc4nnnn4C)CS[C@H]23)c2ccc(O)cc2)C(=O)C1=O [CEFOPERAZONE] | –
90 | – | Cn1nnnc1SCC1=C(C(=O)O)N2C(=O)[C@@H](NC(=O)[C@H](O)c3ccccc3)[C@H]2SC1 [CEFAMANDOLE] | –
> 2000 | – | CO/N=C(\C(=O)N[C@@H]1C(=O)N2C(C(=O)O)=C(CSc3nc(=O)c(=O)[nH]n3C)CS[C@H]12)c1csc(N)n1 [CEFTRIAXONE] | –
– | 780 | Cc1nnc(SCC2=C(C(=O)O)N3C(=O)[C@@H](NC(=O)Cn4cnnn4)[C@H]3SC2)s1 [CEFAZOLIN] | –
800 | – | CO/N=C(\C(=O)N[C@@H]1C(=O)N2C(C(=O)O)=C(COC(C)=O)CS[C@H]12)c1csc(N)n1 [CEFOTAXIME] | –
